Assay results: ChEMBL document CHEMBL4732077, “Potent and orally active purine-based fetal hemoglobin inducers for treating β-thalassemia and sickle cell disease” (Eur J Med Chem, 2021)
Each block holds one compound with its values, some of them ahead of it. Activity calls are given as the source filed them. No cut-off for these calls is given here.

Tests used:
[1] = Induction of CPOX gene expression in human erythrocyte at 0.5 uM after 3 days by RT-PCR analysis relative to control; assay type: functional; details: time 3 day
Erythrocyte [2] = test: Cytotoxicity against human erythrocytes assessed as cell viability at 4 uM after 3 days alamar blue assay; assay type: cell-based; details: 72 h, time 3 day
[3] = Downregulation of c-MYB gene expression in human erythrocyte at 0.5 uM after 3 days by RT-PCR analysis relative to control; assay type: functional; details: time 3 day
Mus musculus [4] = test: Antianemic effect in sickle cell disease mouse B6 model assessed as neutrophils level at 100 mg/kg, po twice daily, five days a week for 4 weeks (reference value: 13.39 +/- 4.65 K/uL); assay type: functional
[5] = Clearance in Sprague-Dawley rat at 5 mg/kg, iv measured upto 24 hrs by LC-MS/MS analysis; assay type: ADME, organism-based; details: in vivo
[6] = AUC (0 to infinity) in Sprague-Dawley rat at 20 mg/kg, po measured upto 24 hrs by LC-MS/MS analysis; assay type: ADME, organism-based; design: route oral, dose 20 mg/kg, time <=24; details: in vivo
[7] = Cytotoxicity against human erythrocytes assessed as cell viability at 2 uM after 3 days alamar blue assay relative to control; assay type: cell-based, Erythrocyte; details: time 3 day, read-out: Activity
Mus musculus [8] = test: Antianemic effect in sickle cell disease mouse B6 model assessed as reticulocytes level at 50 mg/kg, po twice daily, five days a week for 4 weeks (reference value: 57.34 +/- 3.67 %); assay type: functional
[9] = Induction of GATA1 gene expression in human erythrocyte at 0.5 uM after 3 days by RT-PCR analysis relative to control; assay type: functional; details: time 3 day
Erythrocyte [10] = test: Induction of gamma-globin gene expression in human erythrocytes at 0.5 to 1 uM after 3 days Western blot analysis; assay type: functional, cell-based; details: dose 0.5-1 µM, time 3.0 day
[11] = Induction of gamma-globin gene expression in human erythrocytes at 2 uM after 3 days by RT-PCR analysis relative to control; assay type: functional, Erythrocyte; details: time 3 day
[12] = Induction of NFE2L2 gene expression in human erythrocyte at 0.5 uM after 3 days by RT-PCR analysis relative to control; assay type: functional; details: time 3 day
Mus musculus [13] = test: Antianemic effect in sickle cell disease mouse B6 model assessed as sickle cell level at 50 mg/kg, po twice daily, five days a week for 4 weeks (reference value: 16.78 +/- 1.9 %); assay type: functional
Mus musculus [14] = test: Antianemic effect in sickle cell disease mouse B6 model assessed as fetal hemoglobin level at 50 mg/kg, po twice daily, five days a week for 4 weeks (reference value: 0.2 +/- 0.02 %); assay type: functional
Mus musculus [15] = test: Antianemic effect in sickle cell disease mouse B6 model assessed as hemoglobin level at 100 mg/kg, po twice daily, five days a week for 4 weeks (reference value: 7.46 +/- 0.7 g/dl); assay type: functional
[16] = target: Histone deacetylase (Homo sapiens) (UniProt Q13547+O15379+Q9UBN7+Q92769+Q9UQL6+Q8WUI4+Q9BY41+Q96DB2+P56524+Q9UKV0+Q969S8); test: Inhibition of HDAC in human erythrocyte cells assessed as increase in acetylation of histone H4 at 0.5 to 1 uM after 3 days by Western blot analysis; assay type: cell-based; details: dose 0.5-1 µM, time 3.0 day
[17] = Induction of gamma-globin gene expression in human erythrocytes at 1 uM after 3 days by RT-PCR analysis relative to control; assay type: functional, Erythrocyte; details: time 3 day
Erythrocyte [18] = test: Induction of gamma-globin gene expression in human erythrocytes at 0.5 uM after 3 days by RT-PCR analysis; assay type: functional, cell-based; details: time 3.0 day
Mus musculus [19] = test: Antianemic effect in sickle cell disease mouse B6 model assessed as reticulocytes level at 100 mg/kg, po twice daily, five days a week for 4 weeks (reference value: 57.34 +/- 3.67 %); assay type: functional
Mus musculus [20] = test: Antianemic effect in sickle cell disease mouse B6 model assessed as neutrophils level at 50 mg/kg, po twice daily, five days a week for 4 weeks (reference value: 13.39 +/- 4.65 K/uL); assay type: functional
Mus musculus [21] = test: Antianemic effect in sickle cell disease mouse B6 model assessed as RBC level at 100 mg/kg, po twice daily, five days a week for 4 weeks (reference value: 7.23 +/- 0.75 M/uL); assay type: functional
[22] = Half life in Sprague-Dawley rat at 5 mg/kg, iv measured upto 24 hrs by LC-MS/MS analysis; assay type: ADME, organism-based; details: in vivo
[23] = AUC (0 to infinity) in Sprague-Dawley rat at 5 mg/kg, iv measured upto 24 hrs by LC-MS/MS analysis; assay type: ADME, organism-based; design: route intravenous, dose 5 mg/kg, time <=24; details: in vivo
[24] = Induction of CPOX gene expression in human erythrocyte at 1 uM after 3 days by RT-PCR analysis relative to control; assay type: functional; details: time 3 day
Erythrocyte [25] = test: Induction of gamma-globin gene expression in human erythrocytes after 3 days by RT-PCR analysis; assay type: functional, cell-based; details: dose 0.06-2 µM, time 3.0 day
Mus musculus [26] = test: Antianemic effect in sickle cell disease mouse B6 model assessed as fetal hemoglobin level at 100 mg/kg, po twice daily, five days a week for 4 weeks (reference value: 0.2 +/- 0.02 %); assay type: functional
Mus musculus [27] = test: Antianemic effect in sickle cell disease mouse B6 model assessed as hemoglobin level at 50 mg/kg, po twice daily, five days a week for 4 weeks (reference value: 7.46 +/- 0.7 g/dl); assay type: functional
[28] = Volume of distribution at steady state in Sprague-Dawley rat at 5 mg/kg, iv measured upto 24 hrs by LC-MS/MS analysis; assay type: ADME, organism-based; details: in vivo, read-out: Vdss
[29] = Half life in Sprague-Dawley rat at 20 mg/kg, po measured upto 24 hrs by LC-MS/MS analysis; assay type: ADME, organism-based; details: in vivo
[30] = Downregulation of c-MYB gene expression in human erythrocyte at 1 uM after 3 days by RT-PCR analysis relative to control; assay type: functional; details: time 3 day
[31] = Cmax in Sprague-Dawley rat at 20 mg/kg, po measured upto 24 hrs by LC-MS/MS analysis; assay type: ADME, organism-based; design: route oral, dose 20 mg/kg, time <=24; details: in vivo
Mus musculus [32] = test: Antianemic effect in sickle cell disease mouse B6 model assessed as sickle cell level at 100 mg/kg, po twice daily, five days a week for 4 weeks (reference value: 16.78 +/- 1.9 %); assay type: functional
Erythrocyte [33] = test: Downregulation of […] expression in human erythrocyte at 1 uM after 3 days by Western blot analysis; assay type: functional, tissue-based; details: time 3.0 day
Mus musculus [34] = test: Antianemic effect in sickle cell disease mouse B6 model assessed as WBC level at 100 mg/kg, po twice daily, five days a week for 4 weeks (reference value: 34.15 +/- 5.85 K/uL); assay type: functional
[35] = Oral bioavailability in Sprague-Dawley rat at 20 mg/kg measured upto 24 hrs by LC-MS/MS analysis; assay type: ADME, organism-based; details: in vivo
[36] = Induction of NFE2L2 gene expression in human erythrocyte at 1 uM after 3 days by RT-PCR analysis relative to control; assay type: functional; details: time 3 day
Erythrocyte [37] = test: Cytotoxicity against human erythrocytes assessed as cell viability at 1 uM after 3 days alamar blue assay; assay type: cell-based; details: 72 h, time 3 day
Mus musculus [38] = test: Antianemic effect in sickle cell disease mouse B6 model assessed as RBC level at 50 mg/kg, po twice daily, five days a week for 4 weeks (reference value: 7.23 +/- 0.75 M/uL); assay type: functional
Mus musculus [39] = test: Antianemic effect in sickle cell disease mouse B6 model assessed as WBC level at 50 mg/kg, po twice daily, five days a week for 4 weeks (reference value: 34.15 +/- 5.85 K/uL); assay type: functional
Mus musculus [40] = test: Antianemic effect in sickle cell disease mouse B6 model assessed as F-cell level at 100 mg/kg, po twice daily, five days a week for 4 weeks (reference value: 1.63 +/- 0.11 %); assay type: functional
Erythrocyte [41] = test: Induction of beta-globin gene expression in human erythrocytes at 0.5 uM after 3 days by RT-PCR analysis; assay type: functional, cell-based; details: time 3.0 day
[42] = Induction of GATA1 gene expression in human erythrocyte at 1 uM after 3 days by RT-PCR analysis relative to control; assay type: functional; details: time 3 day
Mus musculus [43] = test: Antianemic effect in sickle cell disease mouse B6 model assessed as F-cell level at 50 mg/kg, po twice daily, five days a week for 4 weeks (reference value: 1.63 +/- 0.11 %); assay type: functional
[44] = Water solubility of compound at pH 7.4 after 24 hrs by LC/MS analysis; assay type: physicochemical; details: buffer, pH 7.4, 24 h
[45] = Induction of gamma-globin gene expression in human HU-resistant primary erythrocytes at 0.5 uM after 3 days by RT-PCR analysis relative to control; assay type: functional, Erythrocyte; details: time 3 day
Mus musculus [46] = test: Antianemic effect in sickle cell disease mouse B6 model assessed as WBC level at 100 mg/kg, ip once daily, five days a week for 4 weeks (reference value: 34.15 +/- 5.85 K/uL); assay type: functional
Mus musculus [47] = test: Antianemic effect in sickle cell disease mouse B6 model assessed as hemoglobin level at 100 mg/kg, ip once daily, five days a week for 4 weeks (reference value: 7.46 +/- 0.7 g/dl); assay type: functional
Mus musculus [48] = test: Antianemic effect in sickle cell disease mouse B6 model assessed as neutrophils level at 100 mg/kg, ip once daily, five days a week for 4 weeks (reference value: 13.39 +/- 4.65 K/uL); assay type: functional
Erythrocyte [49] = test: Induction of gamma-globin gene expression in human erythrocytes at 147 uM after 3 days by RT-PCR analysis; assay type: functional, cell-based; details: time 3.0 day
[50] = Induction of gamma-globin gene expression in human erythrocytes at 100 uM after 3 days by RT-PCR analysis relative to control; assay type: functional, Erythrocyte; details: time 3 day
[51] = Cytotoxicity against human erythrocytes assessed as cell viability after 3 days alamar blue assay; assay type: cell-based, Erythrocyte; details: time 3 day
Mus musculus [52] = test: Antianemic effect in sickle cell disease mouse B6 model assessed as F-cell level at 100 mg/kg, ip once daily, five days a week for 4 weeks (reference value: 1.63 +/- 0.11 %); assay type: functional
Erythrocyte [53] = test: Induction of beta-globin gene expression in human erythrocytes at 147 uM after 3 days by RT-PCR analysis; assay type: functional, cell-based; details: time 3.0 day
Mus musculus [54] = test: Antianemic effect in sickle cell disease mouse B6 model assessed as fetal hemoglobin level at 100 mg/kg, ip once daily, five days a week for 4 weeks (reference value: 0.2 +/- 0.02 %); assay type: functional
Mus musculus [55] = test: Antianemic effect in sickle cell disease mouse B6 model assessed as RBC level at 100 mg/kg, ip once daily, five days a week for 4 weeks (reference value: 7.23 +/- 0.75 M/uL); assay type: functional
Mus musculus [56] = test: Antianemic effect in sickle cell disease mouse B6 model assessed as sickle cell level at 100 mg/kg, ip once daily, five days a week for 4 weeks (reference value: 16.78 +/- 1.9 %); assay type: functional
Mus musculus [57] = test: Antianemic effect in sickle cell disease mouse B6 model assessed as reticulocytes level at 100 mg/kg, ip once daily, five days a week for 4 weeks (reference value: 57.34 +/- 3.67 %); assay type: functional

clearance [5]: 8.2 mL/min/kg
AUC(0-inf) [6]: 9000 ng·h/mL
inhibition [16]: inactive
half-life [22]: 7.2 h
AUC(0-inf) [23]: 8860 ng·h/mL
Vd [28]: 0.3 L/kg
half-life [29]: 3.8 h
Cmax [31]: 2730 ng/mL
bioavailability [35]: 25%
solubility [44]: 3.38 µg/mL
Structure (SMILES): CCN1CCN(c2nc(Nc3cccc(NC(=O)C#Cc4ccc(C)cc4)c3)c3ncn(CC)c3n2)CC1.Cl.Cl
fold change (FC) [1]: 1.8
Activity (Erythrocyte [2]): Toxic
fold change (FC) [3]: 0.7
Activity (Mus musculus [4]): 15.64 K/uL
viability at 72 h, 2 µM [7]: 72%
Activity (Mus musculus [8]): 58.98%
fold change (FC) [9]: 1.6
Activity (Erythrocyte [10]): Active
fold change (FC) [11]: 4.8
fold change (FC) [12]: 1.7
Activity (Mus musculus [13]): 10%
Activity (Mus musculus [14]): 0.28%
Activity (Mus musculus [15]): 8.05 g/dL
fold change (FC) [17]: 3.8
Activity (Erythrocyte [18]): Active
Activity (Mus musculus [19]): 54.66%
Activity (Mus musculus [20]): 15.05 K/uL
Activity (Mus musculus [21]): 8.05 M/uL
fold change (FC) [24]: 2.2
Activity (Erythrocyte [25]): Dose-dependent effect
Activity (Mus musculus [26]): 0.3%
Activity (Mus musculus [27]): 8.15 g/dL
fold change (FC) [30]: 0.6
Activity (Mus musculus [32]): 8.8%
Activity (Erythrocyte [33]): Active
Activity (Mus musculus [34]): 44.12 K/uL
fold change (FC) [36]: 2.3
Activity (Erythrocyte [37]): Non-Toxic
Activity (Mus musculus [38]): 7.78 M/uL
Activity (Mus musculus [39]): 35.85 K/uL
Activity (Mus musculus [40]): 2.42%
Activity (Erythrocyte [41]): inactive
fold change (FC) [42]: 2.3
Activity (Mus musculus [43]): 2.15%
fold change (FC) [45]: 2

Structure (SMILES): NC(=O)NO [HYDROXYUREA]
Activity (Mus musculus [46]): 23.02 K/uL
Activity (Mus musculus [47]): 6.7 g/dL
Activity (Mus musculus [48]): 9.75 K/uL
Activity (Erythrocyte [49]): Active
fold change (FC) [50]: 2.5
CC50 at 72 h [51]: 147 µM
Activity (Mus musculus [52]): 1.3%
Activity (Erythrocyte [53]): Active
Activity (Mus musculus [54]): 0.23%
Activity (Mus musculus [55]): 6.34 M/uL
Activity (Mus musculus [56]): 14.7%
Activity (Mus musculus [57]): 50.92%
